According to ChEMBL document CHEMBL5380869, “Discovery of an Oral, Beyond-Rule-of-Five Mcl-1 Protein-Protein Interaction Modulator with the Potential of Treating Hematological Malignancies” (J Med Chem, 2023):
Values after ≈ are worked out from the molar mass of the structure shown.

What was measured:
[1] = biological target: Cytochrome P450 2C19 (Homo sapiens, UniProt P33261); experiment: Inhibition of human CYP2C19 assessed as fluorescent metabolites by CYP450 inhibition assay; type: ADME
[2] = Fraction unbound in mouse plasma at 5 uM incubated for 4.5 hrs by rapid equilibrium dialysis; type: ADME, cell-free
[3] = Thermodynamic (equilibrium) solubility of the compound measured after 3 days agitation in pH 2 buffer by LC-MS/MS analysis; type: physicochemical; conditions: time 3 day, read-out: Therm_solubility
[4] = Thermodynamic (equilibrium) solubility of the compound measured after 3 days agitation in pH 7 buffer by LC-MS/MS analysis; type: physicochemical; conditions: time 3 day, read-out: Therm_solubility
[5] = Inhibition of terbium-labelled Mcl-1 (unknown origin)/Bim BH3 peptide (H3N-(C/Cy5Mal)-WIAQELRRIGDEFN-OH) (unknown origin) interaction assessed as displacement of Cy5-labeled Bim BH3 peptide by TR-HTRF assay
[6] = biological target: T1, CYP1A2 (Homo sapiens, UniProt P05177); experiment: Induction of human CYP1A2 assessed as fold change at 10 uM by CYP450 induction assay; type: ADME; conditions: read-out: FC
T1 sequence (P05177 whole entry): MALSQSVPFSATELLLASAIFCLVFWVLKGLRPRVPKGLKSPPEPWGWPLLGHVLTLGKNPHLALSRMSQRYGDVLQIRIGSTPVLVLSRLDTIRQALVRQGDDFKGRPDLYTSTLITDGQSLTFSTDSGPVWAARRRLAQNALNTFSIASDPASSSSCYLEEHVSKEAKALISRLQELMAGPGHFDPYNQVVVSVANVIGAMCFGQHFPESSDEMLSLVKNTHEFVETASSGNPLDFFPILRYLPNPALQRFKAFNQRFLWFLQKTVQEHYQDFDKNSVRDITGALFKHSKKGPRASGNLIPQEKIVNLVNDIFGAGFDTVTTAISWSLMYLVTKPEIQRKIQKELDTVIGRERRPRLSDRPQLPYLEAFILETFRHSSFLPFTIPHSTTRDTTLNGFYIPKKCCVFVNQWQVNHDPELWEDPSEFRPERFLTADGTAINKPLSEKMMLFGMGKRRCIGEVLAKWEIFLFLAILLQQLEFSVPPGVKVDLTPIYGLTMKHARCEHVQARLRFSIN

[7] = Lipophilicity, CHI logD of compound at pH 7.4 by UPLC-TOF analysis; type: physicochemical; conditions: buffer
[8] = biological target: Cytochrome P450 2D6 (Homo sapiens, UniProt P10635); experiment: Inhibition of human CYP2D6 assessed as fluorescent metabolites by CYP450 inhibition assay; type: ADME
[9] = Intrinsic clearance in human liver microsomes measured upto 60 mins by LC-MS/MS analysis; type: ADME, Microsome; conditions: read-out: CLH
[10] = Intrinsic clearance in mouse liver microsomes measured upto 60 mins by LC-MS/MS analysis; type: ADME, Microsome; conditions: read-out: CLH
[11] = biological target: T2, Cytochrome P450 1A2 (Homo sapiens, UniProt P05177); experiment: Inhibition of human CYP1A2 assessed as fluorescent metabolites by CYP450 inhibition assay; type: ADME
T2 sequence (P05177 whole entry): T1 sequence (P05177 whole entry)

[12] = Cardiotoxicity risk in human iPSC-CM assessed as calcium transients at 1 uM by CTCM assay; type: toxicity, cell-based
[13] = Fraction unbound in human plasma at 5 uM incubated for 4.5 hrs by rapid equilibrium dialysis; type: ADME, cell-free
[14] = biological target: Cytochrome P450 2C9 (Homo sapiens, UniProt P11712); experiment: Inhibition of human CYP2C9 assessed as fluorescent metabolites by CYP450 inhibition assay; type: ADME
[15] = biological target: CYP3A4 (Homo sapiens, UniProt P08684); experiment: Induction of human CYP3A4 assessed as fold change at 1 uM by CYP450 induction assay; type: ADME; conditions: read-out: FC
[16] = tested on: MOLP-8; experiment: Induction apoptosis in human MOLP8 cells assessed as cell killing measured after 2 hrs by Caspase-Glo 3/7 Assay; type: functional, cell-based; conditions: MOLP-8, 2 h
[17] = Cardiotoxicity risk in human iPSC-CM assessed as calcium transients at 3 uM by CTCM assay; type: toxicity, cell-based

Chain of Cytochrome P450 2C9 (P11712 whole entry): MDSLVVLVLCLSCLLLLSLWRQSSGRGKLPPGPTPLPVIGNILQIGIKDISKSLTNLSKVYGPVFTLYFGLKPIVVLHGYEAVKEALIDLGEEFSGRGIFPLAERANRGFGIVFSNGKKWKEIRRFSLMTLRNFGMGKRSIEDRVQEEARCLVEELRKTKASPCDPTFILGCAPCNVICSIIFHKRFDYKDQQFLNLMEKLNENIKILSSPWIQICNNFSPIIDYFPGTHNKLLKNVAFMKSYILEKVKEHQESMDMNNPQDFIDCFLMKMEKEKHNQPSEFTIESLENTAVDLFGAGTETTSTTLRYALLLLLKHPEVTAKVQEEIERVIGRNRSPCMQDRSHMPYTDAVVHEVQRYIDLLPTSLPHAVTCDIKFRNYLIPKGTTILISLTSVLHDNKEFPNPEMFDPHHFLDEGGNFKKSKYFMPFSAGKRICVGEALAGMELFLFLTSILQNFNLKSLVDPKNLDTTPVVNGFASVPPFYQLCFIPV
Chain of Cytochrome P450 2C19 (P33261 whole entry): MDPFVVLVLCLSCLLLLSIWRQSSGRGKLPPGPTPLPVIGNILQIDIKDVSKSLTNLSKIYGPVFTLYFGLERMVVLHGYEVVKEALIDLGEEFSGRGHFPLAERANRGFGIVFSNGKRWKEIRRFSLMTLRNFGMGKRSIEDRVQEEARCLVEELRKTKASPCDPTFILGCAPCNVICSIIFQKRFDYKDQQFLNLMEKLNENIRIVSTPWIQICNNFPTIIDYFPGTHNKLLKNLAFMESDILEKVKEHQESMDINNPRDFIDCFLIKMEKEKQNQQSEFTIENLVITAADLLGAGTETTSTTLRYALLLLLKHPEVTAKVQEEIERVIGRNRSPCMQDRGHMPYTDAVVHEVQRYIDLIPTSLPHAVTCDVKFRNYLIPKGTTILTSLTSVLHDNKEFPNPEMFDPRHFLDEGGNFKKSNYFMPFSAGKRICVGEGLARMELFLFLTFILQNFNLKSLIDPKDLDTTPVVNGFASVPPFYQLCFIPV
Chain of CYP3A4 (P08684 whole entry): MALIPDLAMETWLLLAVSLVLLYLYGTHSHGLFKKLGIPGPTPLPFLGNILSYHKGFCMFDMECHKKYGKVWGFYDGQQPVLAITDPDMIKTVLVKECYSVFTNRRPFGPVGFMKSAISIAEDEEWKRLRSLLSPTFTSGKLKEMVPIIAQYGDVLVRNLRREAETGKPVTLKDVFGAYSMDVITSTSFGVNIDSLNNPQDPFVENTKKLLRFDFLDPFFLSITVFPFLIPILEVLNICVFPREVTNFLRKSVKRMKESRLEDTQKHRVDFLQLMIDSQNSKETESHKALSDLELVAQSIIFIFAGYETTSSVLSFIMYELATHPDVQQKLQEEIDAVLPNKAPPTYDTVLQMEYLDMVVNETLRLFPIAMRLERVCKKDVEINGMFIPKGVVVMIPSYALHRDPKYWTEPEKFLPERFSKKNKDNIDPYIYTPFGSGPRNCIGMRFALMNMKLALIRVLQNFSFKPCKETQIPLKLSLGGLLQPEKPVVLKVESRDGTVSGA
Chain of Cytochrome P450 2D6 (P10635 whole entry): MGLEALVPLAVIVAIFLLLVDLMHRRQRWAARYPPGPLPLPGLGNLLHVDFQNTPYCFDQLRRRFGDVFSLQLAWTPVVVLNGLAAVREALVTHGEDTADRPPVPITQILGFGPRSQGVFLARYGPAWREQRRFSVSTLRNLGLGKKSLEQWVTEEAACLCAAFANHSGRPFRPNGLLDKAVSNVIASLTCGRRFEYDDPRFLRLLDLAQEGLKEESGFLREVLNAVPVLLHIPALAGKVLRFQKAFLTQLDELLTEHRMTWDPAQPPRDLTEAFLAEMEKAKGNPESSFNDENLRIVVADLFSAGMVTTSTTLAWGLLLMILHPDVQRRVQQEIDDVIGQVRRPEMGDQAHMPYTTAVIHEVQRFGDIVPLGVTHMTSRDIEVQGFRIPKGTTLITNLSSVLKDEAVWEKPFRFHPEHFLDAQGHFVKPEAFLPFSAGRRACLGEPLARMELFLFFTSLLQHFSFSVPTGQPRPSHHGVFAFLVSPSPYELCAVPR

COc1nn(C)cc1C(=O)N[S@@]1(=O)=NC(=O)c2ccc3c(c2)N(C[C@@H]2CCO[C@H]2[C@@](CN2CCN4CCOC[C@@H]4C2)(OC)/C(F)=C/C[C@H](C)C1)C[C@@]1(CCCc2cc(Cl)ccc21)CO3
inhibition (INH) [1]: Not Active
Fu [2]: 0.08%
solubility thermodynamic at 72 h [3]: 516 µM (≈ 477 µg/mL)
solubility thermodynamic at 72 h [4]: 561 µM (≈ 519 µg/mL)
Ki [5]: 0.011 nM
fold induction at 10 µM [6]: 1.1
chromatographic logD [7]: 2.9
inhibition (INH) [8]: Not Active
microsomal CLint [9]: < 7.7 µL/min/mg
microsomal CLint [10]: < 7.7 µL/min/mg
inhibition (INH) [11]: Not Active
Activity [12]: Non-Toxic
Fu [13]: 0.11%
inhibition (INH) [14]: Not Active
fold induction at 1 µM [15]: 1
AC50 [16]: 23.2 nM
Activity [17]: Non-Toxic
